Assay [1] relates to Hek293 cells. Kind of assay: Cytotoxicity assay (MTT, 72 h) on Hek293. The assay is classed as cell-based. The settings on record: Homo sapiens; normal cells Hek293, MTT, 72 h, Table S2; read-out: Hek293 IC50. How it is done:
(§1) Table S2. Cytotoxicity of compounds 1-6, 11, 1a-1e, and 6a […]
(§2) The method used followed that reported by Nguyen et al. (2022). Briefly, HepG2 and Hek293 cells in a complete medium containing DMEM (HyClone, Cytiva, USA) and 10% fetal bovine serum (FBS) were seeded into a 96-well plate at 5 × 10^4 cells per well. The cells were then incubated at 37°C with 5% CO2. After culturing for 24 h, the old medium was replaced by diluted compounds (in DMSO), positive control Doxorubicin (DOX, Fesenius Kabi, Germany), and negative control dimethyl sulfoxide (DMSO, Sigma-Aldrich, Germany). After 72 h of treatment, MTT (3-(4,5-Dimethyl-2-thiazolyl)-2,5-diphenyl-2H-tetrazolium bromide) was added into each well of the test plate. The plate was incubated at 37°C with 5% CO2 for another 3 h. DMSO was used to dissolve the crystals from the interaction between MTT and viable cells. The absorbance of samples was read at 570 nm by the ELISA Reader (BioTek, USA). Cell death (% inhibition) was estimated by the following formula:
(§3) % Inhibition = 100 − [100 × (A Sample – A B1)/(ADMSO – A B2)]
(§4) Where, ASample: Absorbance of sample, ADMSO: Absorbance of negative control, AB1: Absorbance of blank of sample, AB2: Absorbance of blank of DMSO. The IC50 value and the inhibitory chart were respectively calculated and built using GraphPad Prism software (version 8.0.1, Insightful Science LLC, […]
(§5) Ref: Nguyen HH, Aree T, Nguyen HT, et al. Diorygmones A-B, two new guaiane-sesquiterpenes from the cultured lichen mycobiont of Diorygma sp. Natural Product Research. Published online February 1,

Assay [2] concerns HepG2 cells. Kind of assay: Cytotoxicity assay (MTT, 72 h) on HepG2. The assay is classed as cell-based. The settings on record: Homo sapiens; liver cancer cell line HepG2, MTT, 72 h, Table S2; read-out: HepG2 IC50. How it is done:
as §1, §2, §3, §4, §5

Assay [3] concerns the target yeast alpha-glucosidase. Kind of assay: Alpha-glucosidase inhibition assay. The assay is classed as biochemical. The settings on record: yeast alpha-glucosidase. The source says: Evaluation of the inhibitory activity of compounds against yeast alpha-glucosidase followed a previous procedure.[30]
Assay [4] has as its target alpha-glucosidase. The settings on record: cited from earlier work.
[5] abbreviates: read-out: IC50, alpha-glucosidase inhibition, previously reported.
The mark [6] stands for this setting: read-out: IC50, alpha-glucosidase inhibition of natural analogs of 1e (Fig. 9).
Setting [7] is: read-out: IC50, alpha-glucosidase inhibition of related synthetic analogs (Fig. 8).

Values after ≈ are worked out from the molar mass of the structure shown. Where two headings read alike, the source gives them in different places. Bounds are passed on as bounds.

The term IC50 denotes the concentration at which inhibition is half-maximal. As for `Cc1cc(O)c(C=O)c2c1C(=O)Oc1c(CO)c(O)c(C(=O)O)c(C)c1O2` [Compound 1, protocetraric acid], the half-inhibitory concentration (IC50) in assay [1] was 35.7 ± 2.4 µg/mL (≈ 95.5 µM); in assay [2], 63.6 ± 0.06 µg/mL (≈ 170 µM); in assay [3], 70.6 ± 1.2 µM; in assay [4] (setting [5]), 81.6 µM.

On to `Cc1cc(O)c(/C=N/Nc2ccccc2)c2c1C(=O)Oc1c(CO)c(O)c(C(=O)O)c(C)c1O2` [Compound 1a, (E)-3,8-dihydroxy-9-(hydroxymethyl)-1,6-dimethyl-11-oxo-4-((2-phenylhydrazono-)methyl)-11H-dibenzo[b,e][1,4]dioxepine-7-carboxylic acid], for which the IC50 in assay [1] was more than 100 µg/mL; in assay [2], more than 100 µg/mL; in assay [3], 25.9 ± 2.2 µM.

Consider `Cc1cc(O)c(/C=N/Nc2ccc(Br)cc2)c2c1C(=O)Oc1c(CO)c(O)c(C(=O)O)c(C)c1O2` [Compound 1b, (E)-4-((2-(4-bromophenyl)hydrazono)methyl)-3,8-dihydroxy-9-(hydroxymethyl)-1,6-dimethyl-11-oxo-11H-dibenzo[b,e][1,4]dioxepine-7-carboxylic acid], for which the values for the IC50 in assay [1], in assay [2] and in assay [3] were more than 100 µg/mL, more than 100 µg/mL and 20.7 ± 1.1 µM, respectively.

Regarding `Cc1c(Br)c(O)c(Br)c2c1Oc1c(Br)c(O)c(Br)c(C)c1C(=O)O2` [Compound 1c, 2,4,7,9-tetrabromo-3,8-dihydroxy-1,6-dimethyl-11H-dibenzo[b,e][1,4]dioxepin-11-one], the IC50 in assay [1] turned out to be 58.9 ± 2.84 µg/mL (≈ 100 µM); in assay [2], 76.5 ± 1.07 µg/mL (≈ 130 µM); in assay [3], 80.7 ± 1.8 µM.

Regarding `CC(=O)OCc1c(O)c(Br)c(C)c2c1OC(=O)c1c(C)c(Br)c(O)c(Br)c1O2` [Compound 1d, (2,4,7-tribromo-3,8-dihydroxy-1,6-dimethyl-11-oxo-11H-dibenzo[b,e][1,4]dioxep-in-9-yl)methyl acetate], the IC50 worked out at 61.1 ± 2.71 µg/mL in assay [1], 86.7 ± 0.68 µg/mL in assay [2] and 91.8 ± 1.5 µM in assay [3].

Turning to `COc1cc(C)c2c(c1C=O)Oc1c(c(C)c(O)c3c1C(OC)OC3=O)OC2=O` (stereo not shown) [Compound 2, 8′-methylstictic acid], the results for the IC50 in assay [1], in assay [2] and in assay [3] were more than 100 µg/mL, more than 100 µg/mL and 41.8 ± 1.5 µM, respectively.

Take `COc1cc(C)c2c(c1C=O)Oc1c(c(C)c(O)c3c1C(O)OC3=O)OC2=O` (stereo not shown) [Compound 3, stictic acid]: the 50% inhibitory concentration (IC50) in assay [1] was 33.9 ± 1.6 µg/mL (≈ 87.8 µM); in assay [2] it was more than 100 µg/mL; in assay [3], 30.4 ± 1.4 µM.

Regarding `COc1cc(C)c2c(c1C=O)Oc1c(C=O)c(C(=O)O)c(O)c(C)c1OC2=O` [Compound 4, 4,6-diformyl-8-hydroxy-3-methoxy-1,9-dimethyl-11-oxo-11H-dibenzo[b,e][1,4]dioxepine-7-carboxylic acid], the IC50 is more than 100 µg/mL in assay [1], more than 100 µg/mL in assay [2] and more than 200 µM in assay [3].

As to `COc1c(C)c2c(c(C)c1Cl)Oc1c(C)c(O)c(Cl)c(C)c1C(=O)O2` [Compound 5, vicanicin], the results for the IC50 in assay [1], in assay [2] and in assay [3] were more than 100 µg/mL, more than 100 µg/mL and more than 200 µM, respectively.

On to `Cc1cc(O)c(C=O)c2c1C(=O)Oc1c(C)c(O)c3c(c1O2)C(O)OC3=O` (stereo not shown) [Compound 6, norstictic acid], for which the IC50 in assay [1] is more than 100 µg/mL; in assay [2] it was more than 100 µg/mL; in assay [3] it was 50.7 ± 2.7 µM.

In the case of `Cc1c(O)c2c(c3c1OC(=O)c1c(C)c(Br)c(O)c(C=O)c1O3)C(O)OC2=O` (stereo not shown) [Compound 6a, 9-bromo-1,4,10-trihydroxy-5,8-dimethyl-3,7-dioxo-3,7-dihydro-1H-benzo[6,7][1,4]-dioxepino[2,3-e]isobenzofuran-11-carbaldehyde], the IC50 in assay [1] is 88.2 ± 2.02 µg/mL (≈ 195 µM); in assay [2] it was more than 100 µg/mL; in assay [3], 102 ± 1.8 µM.

Take `COc1cc(C)c(C(=O)Oc2cc(C)c(C(=O)O)c(O)c2C)c(OC)c1C` [Compound 7, diffractaic acid]: the IC50 in assay [3] is more than 200 µM; in assay [4] (setting [5]), 420 µM.

As to `COc1cc(C)c(C(=O)Oc2cc(C)c(C(=O)O)c(O)c2C)c(O)c1C` [Compound 8, barbatic acid], the concentration for half-maximal inhibition (IC50) in assay [3] was more than 200 µM.

Consider `Cc1cc(O)c(C=O)c(O)c1` [Compound 9, atranol], for which the IC50 in assay [3] is more than 200 µM; in assay [4] (setting [5]), 559 µM.

In assay [3], `Cc1c(Cl)c(O)c(C=O)c(O)c1C(=O)O` [Compound 10, 5-chlorohaematommic acid] returned an IC50 of more than 200 µM.

Regarding `Cc1cc(OC(=O)c2c(O)cc(O)c(Cc3c(O)c(C(=O)O)c(C)c4c3Oc3c(C=O)c(O)cc(C)c3C(=O)O4)c2C)cc(O)c1C(=O)O` [Cristifone A], the half-inhibitory concentration (IC50) in assay [4] (setting [6]) is 21.5 µM.

Consider `Cc1cc(O)c(C=O)c(O)c1Cc1c(O)c(C(=O)O)c(C)c2c1Oc1c(C=O)c(O)cc(C)c1C(=O)O2` [Cristifone B], for which the “inhibition type, previously reported” value in assay [4] is recorded as “non-competitive inhibitors”. Moreover, the IC50 in assay [4] (setting [6]) is 18.4 µM.

Consider `COc1cccc2c1C(=O)c1c(O)c3c(c(O)c1C2=O)C[C@@](O)(C(=O)CO)C[C@@H]3O[C@H]1C[C@H](N)[C@H](O)[C@H](C)O1` [Doxorubicin, reference compound], for which the IC50 was 2.13 ± 0.01 µg/mL (≈ 3.92 µM) in assay [1] and 1.89 ± 0.03 µg/mL (≈ 3.48 µM) in assay [2].

As for `Cc1cc(O)c(/C=N/Nc2ccc(Br)cc2)c2c1C(=O)Oc1c(CO)c(O)c3c(c1O2)C(O)OC3=O` (stereo not shown) [I, (E)-11-((2-(4-bromophenyl)hydrazineylidene)methyl)-1,4,10-trihydroxy-5-(hydroxymethyl)-8-methyl-7H-benzo[6,7][1,4]dioxepino[2,3-e]isobenzofuran-3,7(1H)-dione], the “inhibition type, previously reported” value in assay [4] is reported as “non-competitive inhibitors”. Also, the IC50 in assay [4] (setting [7]) is 11.3 µM.

Take `Cc1c(Br)c(O)c(Br)c2c1C(=O)Oc1c(CO)c(O)c(Br)c(C=O)c1O2` [III]: the 50% inhibitory concentration (IC50) in assay [4] (setting [7]) is 16.4 µM.

In the case of `Cc1cc(O)c(/C=N/Nc2ccc(Cl)cc2)c2c1C(=O)Oc1c(CO)c(O)c3c(c1O2)C(O)OC3=O` (stereo not shown) [II], the IC50 in assay [4] (setting [7]) is 19.4 µM.

As for `Cc1c(Br)c(O)c(Br)c2c1C(=O)Oc1c(CO)c(O)c3c(c1O2)C(O)OC3=O` (stereo not shown) [IV], the IC50 in assay [4] (setting [7]) was 15.6 µM.

For the compound `Cc1cc(OC(=O)c2c(C)cc(O)cc2O)cc(O)c1Cc1c(O)c(C(=O)O)c(C)c2c1Oc1c(C=O)c(O)cc(C)c1C(=O)O2` [Parmoferone A], the IC50 in assay [4] (setting [6]) was 18.1 µM.

For `Cc1cc(O)cc(O)c1Cc1c(O)c2c(c3c1OC(=O)c1c(C)cc(O)c(C=O)c1O3)C(O)OC2=O` (stereo not shown) [Parmosidone F], the “inhibition type, previously reported” value in assay [4] was “mixed-mode inhibitor”. The IC50 in assay [4] (setting [6]) was 2.2 µM.

`CC(=O)C=Cc1c(O)cc(C)c2c1Oc1c(c(Cc3c(C)cc(O)cc3O)c(O)c3c1C(O)OC3=O)OC2=O` (stereo not shown) [Parmosidone G]: the IC50 in assay [4] (setting [6]) was 4.3 µM.

Regarding `COC(=O)c1c(C)c(Cc2c(O)cc(C)c3c2Oc2c(C=CC(C)=O)c(O)cc(C)c2C(=O)O3)c(O)c(C)c1O` [Parmosidone H], the IC50 in assay [4] (setting [6]) was 17.6 µM.

Turning to `COC(=O)c1c(C)c(Cc2c(O)c(C(=O)O)c(C)c3c2Oc2c(C=O)c(O)cc(C)c2C(=O)O3)c(O)c(C=O)c1O` [Parmosidone J], the IC50 in assay [4] (setting [6]) is 10.7 µM.

With `Cc1cc(O)cc(O)c1Cc1c(O)c(C(=O)O)c(C)c2c1Oc1c(C=O)c(O)cc(C)c1C(=O)O2` [Parmosidone K], the IC50 in assay [4] (setting [6]) was 6.1 µM.

For the compound `Cc1c(Br)c(O)c(C=O)c2c1C(=O)Oc1c(Br)c(O)c3c(c1O2)C(O)OC3=O` (stereo not shown) [V], the IC50 in assay [4] (setting [7]) is 14.3 µM.

(Values after publication PMC11475664, “Alpha-glucosidase inhibitory compounds from Vietnamese lichen Usnea baileyi: in vitro and in silico aspects” (RSC Advances, 2024).)
